{"source": "patent US5714494A", "about": "“Xanthines in the 7th position with a benzyl acetic acid moiety” (Bayer Aktiengesellschaft, priority 1995, dated 1998)", "data": [{"test_system": "ApoB-100-associated lipoproteins", "test": "Inhibition of the release of ApoB-100-associated lipoproteins from HepG2 cells (immunoassay for human LDL)", "assay_type": "cell-based", "details": "HepG2 cells; light absorption 450 nm vs solvent control", "protocol": "(§1) The test for detecting inhibition of the release of ApoB-100-associated lipoproteins from liver cells was carried out in vitro using cultured liver cells, preferably using cells of the human line HepG2. These cells are grown under standard conditions in medium for the culture of eucaryotic cells, preferably in RPMI 1640 using 10% foetal calf serum. HepG2 cells synthesize and secrete into the culture supernatant ApoB-100-associated lipoprotein particles which in principle are synthesized in a similar manner to the VLDL and LDL particles which are to be found in the plasma.\n(§2) These particles can be detected using an immunoassay for human LDL. This immunoassay is carried out using antibodies which have been induced in the rabbit against human LDL under standard conditions. The anti-LDL antibodies (rabbit anti-LDL-Ab) were purified by affinity chromatography on an immunosorbent using human LDL. These purified rabbit anti-LDL Ab are adsorbed on the surface of plastic. Expediently, this adsorption is carried out on the plastic surface of microtitre plates having 96 wells, preferably on MaxiSorp plates. If ApoB-100-associated particles are present in the supernatant of Hep-G2 cells, these can bind to the insolubilized rabbit anti-LDL Ab, and an immune complex is formed which is bound to the plastic surface. Unbound proteins are removed by washing. The immune complex located on the plastic surface is detected using monoclonal antibodies which have been induced against human LDL according to standard conditions and purified. These antibodies were conjugated with the enzyme peroxidase. Peroxidase converts the colourless substrate TMB into a coloured product in the presence of H2 O2. After acidification of the reaction mixture using H2 SO4, the specific light absorption at 450 mn is determined, which is a measure of the amount of ApoB-100-associated particles which have been secreted into the culture supernatant by the HepG2 cells.\n(§3) The IC50 value indicates at which substance concentration the light absorption is inhibited by 50% in comparison with the control (solvent control without substance).", "units": {"IC50": "nM"}, "values": [{"compound": "Cn1c(=O)c2c(nc(Cc3ccc(F)cc3)n2Cc2ccc(C(C(=O)N[C@@H](CO)c3ccccc3)C3CCCC3)cc2)n(C)c1=O", "note": "(single isomer, unassigned) [Example 196]", "IC50": 61}, {"compound": "COc1cccc(Cc2nc3c(c(=O)n(C)c(=O)n3C)n2Cc2ccc(C(C(=O)N[C@@H](CO)c3ccccc3)C3CCCC3)cc2)c1", "note": "(single isomer, unassigned) [Example 199]", "IC50": 5}, {"compound": "COc1cccc(Cc2nc3c(c(=O)n(C)c(=O)n3C)n2Cc2ccc(C(C(=O)N[C@@H](CO)c3ccccc3)C3CCCC3)cc2)c1", "note": "(single isomer, unassigned) [Example 200]", "IC50": 24}, {"compound": "COc1ccc(Cc2nc3c(c(=O)n(C)c(=O)n3C)n2Cc2ccc(C(C(=O)N[C@@H](CO)c3ccccc3)C3CCCC3)cc2)cc1", "note": "(single isomer, unassigned) [Example 202]", "IC50": 9}, {"compound": "COc1ccc(Cc2nc3c(c(=O)n(C)c(=O)n3C)n2Cc2ccc(C(C(=O)N[C@@H](CO)c3ccccc3)C3CCCC3)cc2)cc1", "note": "(single isomer, unassigned) [Example 203]", "IC50": 63}]}, {"test_system": "ApoB-100-associated lipoproteins", "test": "Inhibition of the release of ApoB-100-associated lipoproteins from HepG2 cells (immunoassay for human LDL)", "assay_type": "cell-based", "details": "Homo sapiens, HepG2, HepG2 cells; light absorption 450 nm vs solvent control", "protocol": "as §1, §2, §3", "units": {"IC50": "nM"}, "values": [{"compound": "CCn1c(=O)c2c(ncn2Cc2ccc(C(C(=O)N[C@@H](CO)c3ccccc3)C3CCCC3)cc2)n(CC)c1=O", "note": "(single isomer, unassigned) [Example 212]", "IC50": 8}, {"compound": "Cn1c(=O)c2c(ncn2Cc2ccc(C(C(=O)N[C@@H](CO)c3ccccc3)C3CCCC3)cc2)n(C)c1=O", "note": "(some centres unmarked) [Example 113]", "IC50": 58}, {"compound": "Cc1nc2c(c(=O)n(C)c(=O)n2C)n1Cc1ccc(C(C(=O)N[C@@H](CO)c2ccccc2)C2CCCC2)cc1", "note": "(some centres unmarked) [Example 119]", "IC50": 11}, {"compound": "CCc1nc2c(c(=O)n(C)c(=O)n2C)n1Cc1ccc(C(C(=O)N[C@@H](CO)c2ccccc2)C2CCCC2)cc1", "note": "(some centres unmarked) [Example 120]", "IC50": 28}, {"compound": "Cn1c(=O)c2c(nc(C3CC3)n2Cc2ccc(C(C(=O)N[C@@H](CO)c3ccccc3)C3CCCC3)cc2)n(C)c1=O", "note": "(some centres unmarked) [Example 121]", "IC50": 36}, {"compound": "Cn1c(=O)c2c(nc(C3CCCC3)n2Cc2ccc(C(C(=O)N[C@@H](CO)c3ccccc3)C3CCCC3)cc2)n(C)c1=O", "note": "(some centres unmarked) [Example 122]", "IC50": 48}, {"compound": "Cn1c(=O)c2c(nc(Cc3cccs3)n2Cc2ccc(C(C(=O)N[C@@H](CO)c3ccccc3)C3CCCC3)cc2)n(C)c1=O", "note": "(some centres unmarked) [Example 126]", "IC50": 41}, {"compound": "Cc1ccccc1-c1nc2c(c(=O)n(C)c(=O)n2C)n1Cc1ccc(C(C(=O)N[C@@H](CO)c2ccccc2)C2CCCC2)cc1", "note": "(some centres unmarked) [Example 132]", "IC50": 743}, {"compound": "Cc1ccc(-c2nc3c(c(=O)n(C)c(=O)n3C)n2Cc2ccc(C(C(=O)N[C@@H](CO)c3ccccc3)C3CCCC3)cc2)c(C)c1", "note": "(some centres unmarked) [Example 138]", "IC50": 403}, {"compound": "Cn1c(=O)c2c(nc(-c3ccc(-c4ccccc4)cc3)n2Cc2ccc(C(C(=O)N[C@@H](CO)c3ccccc3)C3CCCC3)cc2)n(C)c1=O", "note": "(some centres unmarked) [Example 139]", "IC50": 90}, {"compound": "Cn1c(=O)c2c(nc(-c3cccnc3)n2Cc2ccc(C(C(=O)N[C@@H](CO)c3ccccc3)C3CCCC3)cc2)n(C)c1=O", "note": "(some centres unmarked) [Example 152]", "IC50": 169}, {"compound": "Cc1ccc(-c2nc3c(c(=O)n(C)c(=O)n3C)n2Cc2ccc(C(C(=O)N[C@@H](CO)c3ccccc3)C3CCCC3)cc2)s1", "note": "(some centres unmarked) [Example 163]", "IC50": 131}, {"compound": "Cn1c(=O)c2c(nc(-c3cc(Br)cs3)n2Cc2ccc(C(C(=O)N[C@@H](CO)c3ccccc3)C3CCCC3)cc2)n(C)c1=O", "note": "(some centres unmarked) [Example 164]", "IC50": 12}, {"compound": "Cn1c(=O)c2c(nc(Cc3ccccc3)n2Cc2ccc(C(C(=O)N[C@@H](CO)c3ccccc3)C3CCCC3)cc2)n(C)c1=O", "note": "(some centres unmarked) [Example 168]", "IC50": 16}, {"compound": "Cn1c(=O)c2c(nc(Cc3ccccc3)n2Cc2ccc(C(C(=O)N[C@@H](CO)c3ccccc3)C3CCCCC3)cc2)n(C)c1=O", "note": "(some centres unmarked) [Example 171]", "IC50": 2}, {"compound": "Cn1c(=O)c2c(nc(Cc3ccc(-c4ccccc4)cc3)n2Cc2ccc(C(C(=O)N[C@@H](CO)c3ccccc3)C3CCCC3)cc2)n(C)c1=O", "note": "(some centres unmarked) [Example 185]", "IC50": 29}, {"compound": "Cn1c(=O)c2c(nc(Cc3ccccc3Cl)n2Cc2ccc(C(C(=O)N[C@@H](CO)c3ccccc3)C3CCCC3)cc2)n(C)c1=O", "note": "(some centres unmarked) [Example 188]", "IC50": 23}, {"compound": "Cn1c(=O)c2c(nc(Cc3ccc(F)cc3)n2Cc2ccc(C(C(=O)N[C@@H](CO)c3ccccc3)C3CCCC3)cc2)n(C)c1=O", "note": "(some centres unmarked) [Example 194]", "IC50": 8}]}]}
